Data from patent US20240293413A1, “COMPOUND AND METHOD FOR TREATING CHEMOTHERAPY-RELATED GASTROINTESTINAL SIDE EFFECTS” (ONQUALITY PHARMACEUTICALS CHINA LTD., priority 2021, published 2024).

Columns and labels:
Format in all cases: in vivo
[1] = tested on: diarrhea caused by a chemotherapeutic agent in Balb/c mice; experiment: Examples 230-271 (Table 4): oral CDK inhibitor, relief of diarrhea caused by a chemotherapeutic agent; conditions: Doxorubicin (Dox) intramuscular injection 10 mg/kg single, CDK inhibitor oral 40 mg/kg single, cycle 10 days
Excerpt: (§1) Balb/c mice were fed for 1 week, and then divided into groups. The experiment was divided into a control group, a chemotherapeutic agent group, and a CDK inhibitor group, each of which comprised 10 mice, to perform the administration experiment, for which the administration dosage, mode, time and frequency were shown in Table 4. The control group: being intragastrically administered with the same solvent as that used in the CDK inhibitor group (the time was shown in Table 4), and then being injected/intragastrically administered with the same solvent as that used in the chemotherapeutic agent group (the administration mode was shown in Table 4): the chemotherapeutic agent group: being intragastrically administered with the same solvent as that used in the CDK inhibitor group (the time was shown in Table 4), and then being injected/intragastrically administered with the chemotherapeutic agent (the type, administration mode and dosage were shown in Table 4): the CDK inhibitor group: being intragastrically administered with the CDK inhibitor (the time was shown in Table 4), and then being administered with the chemotherapeutic agent (the mode and dosage were shown in Table 4).
(§2) The diarrhea grading of mice was observed and recorded every day.

[2] = tested on: Chemotherapeutic agent-caused diarrhea models of Balb/c mice; experiment: Examples 1-229 (Table 3): oral CDK inhibitor, relief of diarrhea caused by a chemotherapeutic agent;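 further: percent of treated mice whose diarrhea grade fell below chemotherapy-group average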
Excerpt: Construction of mouse animal models: Chemotherapeutic agent-caused diarrhea models of Balb/c mice were constructed according to the administration mode and frequency of the chemotherapeutic agent as shown in Table 3.
as §1, with “in Table 3. The control” for “in Table 4. The control”, “in Table 3), and then” for “in Table 4), and then”, “in Table 3): the chemotherapeutic” for “in Table 4): the chemotherapeutic”, “in Table 3); the CDK” for “in Table 4): the CDK”, “in Table 3).” for “in Table 4).”
as §2

[3] = tested on: diarrhea caused by a chemotherapeutic agent in Balb/c mice; experiment: Examples 343-381 (Table 6): oral versus intravenous CDK inhibitor, relief of diarrhea caused by a chemotherapeutic agent; conditions: Example 368, Topotecan (TP) intravenous injection 10 mg/kg single, 0.5 h before, cycle 10 days;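 further: percent of treated mice whose diarrhea grade fell below chemotherapy-group average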
Excerpt: Balb/c mice were fed for 1 week, and then divided into groups. The experiment was divided into a control group, a chemotherapeutic agent group, and an oral administration group of a CDK inhibitor, and an intravenous injection group of a CDK inhibitor, each of which comprised 10 mice, to perform the administration experiment, for which the administration dosage, mode, time and frequency were shown in Table 6. The control group: being injected/intragastrically administered with the same solvent as that used in the CDK inhibitor group (the time was shown in Table 6), and then being injected/intragastrically administered with the same solvent as that used in the chemotherapeutic agent group (the administration mode was shown in Table 6): the chemotherapeutic agent group: being injected/intragastrically administered with the same solvent as that used in the CDK inhibitor group (the time was shown in Table 6), and then being injected/intragastrically administered with the chemotherapeutic agent (the type, administration mode and dosage were shown in Table 6): the oral administration group of the CDK inhibitor: being intragastrically administered with the CDK inhibitor (the time was shown in Table 6), and then being administered with the chemotherapeutic agent (the mode and dosage were shown in Table 6): the intravenous injection group of the CDK inhibitor: being injected with the CDK inhibitor through tail vein (the time was shown in Table 6), and then being administered with the chemotherapeutic agent (the mode and dosage were shown in Table 6).
as §2

[4] = tested on: Chemotherapeutic agent-caused constipation models of Balb/c mice; experiment: Examples 272-342 (Table 5): oral CDK inhibitor, relief of constipation caused by a chemotherapeutic agent; conditions: cycle 8 days;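 further: percent of treated mice relieved versus chemotherapy group by feces reduction rate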
Excerpt: Construction of mouse animal models: Chemotherapeutic agent-caused constipation models of Balb/c mice were constructed according to the administration mode and frequency of the chemotherapeutic agent as shown in Table 5.
Balb/c mice were fed for 1 week, and then divided into groups. The experiment was divided into a control group, a chemotherapeutic agent group, and a CDK inhibitor group, each of which comprised 10 mice, to perform the administration experiment, for which the administration dosage, mode, time and frequency were shown in Table 5. The control group: being intragastrically administered with the same solvent as that used in the CDK inhibitor group (the time was shown in Table 5), and then being injected/intragastrically administered with the same solvent as that used in the chemotherapeutic agent group (the administration mode was shown in Table 5): the chemotherapeutic agent group: being intragastrically administered with the same solvent as that used in the CDK inhibitor group (the time was shown in […]), and then being injected/intragastrically administered with the chemotherapeutic agent (the type, administration mode and dosage were shown in Table 5): the CDK inhibitor group: being intragastrically administered with the CDK inhibitor (the time was shown in Table 5), and then being administered with the chemotherapeutic agent (the mode and dosage were shown in Table 5).
(§3) Feces reduction rate (%)=(the control group−the chemotherapeutic agent group or the CDK inhibitor group)/the control group*100%
(§4) The feces amount of mice within 3 hours was observed and recorded every day.

[5] = tested on: constipation caused by a chemotherapeutic agent in Balb/c mice; experiment: Examples 406-443 (Table 8): various administration modes of the CDK inhibitor, relief of constipation caused by a chemotherapeutic agent; conditions: for Relative remission rate of other administration mode / Relative remission rate of oral administration: cycle 8 days; for improvement of constipation by oral administration, intraperitoneal injection, intramuscular injection, local administration: constipation caused by doxorubicin, etoposide, etoposide plus cisplatin, carboplatin, gemcitabine, gemcitabine plus carboplatin, under certain conditions, oral most significant;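 on Relative remission rate of oral administration: percent of treated mice relieved versus chemotherapy group by feces reduction rate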;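 on Relative remission rate of other administration mode: percent of treated mice relieved versus chemotherapy group by feces reduction rate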
Excerpt: Balb/c mice were fed for 1 week, and then divided into groups. The experiment was divided into a control group, a chemotherapeutic agent group, CDK inhibitor groups (including an oral administration group of a CDK inhibitor, an intravenous injection group of a CDK inhibitor, an intraperitoneal injection group of a CDK inhibitor, an intramuscular injection group of a CDK inhibitor, a local administration group of a CDK inhibitor), each of which comprised 10 mice, to perform the administration experiment, for which the administration dosage, mode, time and frequency were shown in Table 8. The control group: being administered with the same solvent as that used in the CDK inhibitor group (the time and mode were shown in Table 8), and then being injected/intragastrically administered with the same solvent as that used in the chemotherapeutic agent group (the administration mode was shown in Table 8): the chemotherapeutic agent group: being administered with the same solvent as that used in the CDK inhibitor group (the time and mode were shown in Table 8), and then being injected/intragastrically administered with the chemotherapeutic agent (the type, administration mode and dosage were shown in Table 8): the oral administration group of the CDK inhibitor: being intragastrically administered with the CDK inhibitor (the time was shown in Table 8), and then being administered with the chemotherapeutic agent (the mode and dosage were shown in Table 8): the intravenous injection group of the CDK inhibitor: being injected with the CDK inhibitor through tail vein (the time was shown in Table 8), and then being administered with the chemotherapeutic agent (the mode and dosage were shown in Table 8): the intraperitoneal injection group of the CDK inhibitor: being intraperitoneally injected with the CDK inhibitor (the time was shown in Table 8), and then being administered with the chemotherapeutic agent (the mode and dosage were shown in Table 8): the intramuscular injection group of the CDK inhibitor: being intramuscularly injected with the CDK inhibitor (the time was shown in Table 8), and then being administered with the chemotherapeutic agent (the mode and dosage were shown in Table 8); and the local administration group of the CDK inhibitor: the hair on the abdomen of mice was shaved (about 2 cm*2 cm), being applied with the CDK inhibitor (the time was shown in Table 8), and then being administered with the chemotherapeutic agent (the mode and dosage were shown in Table 8).
as §3, §4

Compound: CCc1cnn2c(NCc3ccc[n+]([O-])c3)cc(N3CCCC[C@H]3CCO)nc12 [Dinaciclib]
- Relative remission rate ([1]; Example 240, 0.5 h before): 30%
- Relative remission rate ([1]; Example 241, 12 h before): 20%
- Relative remission rate ([1]; Example 242, 24 h before): 0%
- Relative remission rate (%) ([2]; Example 131, Docetaxel (DTX) intraperitoneal injection 10 mg/kg single, CDK inhibitor oral 40 mg/kg single 0.5 h before, cycle 8 days): 10%
- Relative remission rate (%) ([2]; Example 132, Docetaxel (DTX) intraperitoneal injection 10 mg/kg single, CDK inhibitor oral 40 mg/kg single 1 h before, cycle 8 days): 10%
- Relative remission rate (%) ([2]; Example 133, Docetaxel (DTX) intraperitoneal injection 10 mg/kg single, CDK inhibitor oral 40 mg/kg single 2 h before, cycle 8 days): 20%
- Relative remission rate (%) ([2]; Example 134, Docetaxel (DTX) intraperitoneal injection 10 mg/kg single, CDK inhibitor oral 40 mg/kg single 4 h before, cycle 8 days): 20%
- Relative remission rate (%) ([2]; Example 135, Docetaxel (DTX) intraperitoneal injection 10 mg/kg single, CDK inhibitor oral 40 mg/kg single 6 h before, cycle 8 days): 30%
- Relative remission rate (%) ([2]; Example 136, Docetaxel (DTX) intraperitoneal injection 10 mg/kg single, CDK inhibitor oral 40 mg/kg single 8 h before, cycle 8 days): 30%
- Relative remission rate (%) ([2]; Example 137, Docetaxel (DTX) intraperitoneal injection 10 mg/kg single, CDK inhibitor oral 40 mg/kg single 10 h before, cycle 8 days): 30%
- Relative remission rate (%) ([2]; Example 138, Docetaxel (DTX) intraperitoneal injection 10 mg/kg single, CDK inhibitor oral 40 mg/kg single 12 h before, cycle 8 days): 20%
- Relative remission rate (%) ([2]; Example 139, Docetaxel (DTX) intraperitoneal injection 10 mg/kg single, CDK inhibitor oral 40 mg/kg single 14 h before, cycle 8 days): 20%
- Relative remission rate (%) ([2]; Example 140, Docetaxel (DTX) intraperitoneal injection 10 mg/kg single, CDK inhibitor oral 40 mg/kg single 16 h before, cycle 8 days): 40%
- Relative remission rate (%) ([2]; Example 141, Docetaxel (DTX) intraperitoneal injection 10 mg/kg single, CDK inhibitor oral 40 mg/kg single 18 h before, cycle 8 days): 30%
- Relative remission rate (%) ([2]; Example 142, Docetaxel (DTX) intraperitoneal injection 10 mg/kg single, CDK inhibitor oral 40 mg/kg single 20 h before, cycle 8 days): 30%
- Relative remission rate (%) ([2]; Example 143, Docetaxel (DTX) intraperitoneal injection 10 mg/kg single, CDK inhibitor oral 40 mg/kg single 22 h before, cycle 8 days): 20%
- Relative remission rate (%) ([2]; Example 144, Docetaxel (DTX) intraperitoneal injection 10 mg/kg single, CDK inhibitor oral 40 mg/kg single 24 h before, cycle 8 days): 10%
- Relative remission rate (%) ([2]; Example 145, Docetaxel (DTX) intraperitoneal injection 10 mg/kg single, CDK inhibitor oral 40 mg/kg single 48 h before, cycle 8 days): 0%
- Relative remission rate (%) ([2]; Example 204, Gemcitabine 60 mg/kg and paclitaxel 10 mg/kg intraperitoneal injection single, CDK inhibitor oral 70 mg/kg single, 4 h before, 8 days): 30%
- Relative remission rate ([3]; CDK inhibitor intravenous injection 40 mg/kg single): 10%
- Relative remission rate ([3]; CDK inhibitor oral 40 mg/kg single): 20%

Compound: CC[C@H](CO)Nc1nc(NCc2ccccc2)c2ncn(C(C)C)c2n1 [Seliciclib]
- Relative remission rate ([4]; Example 321, Docetaxel (DTX) oral administration 30 mg/kg single, CDK inhibitor oral 400 mg/kg single, 3 h before): 20%
- Relative remission rate (%) ([2]; Example 46, Fluorouracil (5-Fu) intravenous injection 175 mg/kg single, CDK inhibitor oral 250 mg/kg single 2 h before, cycle 10 days): 30%
- Relative remission rate (%) ([2]; Example 118, Irinotecan (CPT-11) intraperitoneal injection 240 mg/kg single, CDK inhibitor oral 250 mg/kg single 6 h before, cycle 7 days): 30%
- Relative remission rate (%) ([2]; Example 195, Gemcitabine 60 mg/kg and paclitaxel 10 mg/kg intravenous injection single, CDK inhibitor oral 400 mg/kg single, 0.5 h before, 8 days): 30%
- Relative remission rate (%) ([2]; Example 199, Gemcitabine 60 mg/kg and paclitaxel 10 mg/kg intravenous injection single, CDK inhibitor oral 250 mg/kg single, 2 h before, 8 days): 20%
- Relative remission rate (%) ([2]; Example 200, Gemcitabine 60 mg/kg and paclitaxel 10 mg/kg intraperitoneal injection single, CDK inhibitor oral 250 mg/kg single, 6 h before, 8 days): 40%
- Relative remission rate of other administration mode ([5]; Example 442, Gemcitabine and Carboplatin oral administration 300 (G) 200 (C) mg/kg single, CDK inhibitor local administration 400 mg/kg single, 4 h before): 10%
- Relative remission rate of oral administration ([5]; Example 442, Gemcitabine and Carboplatin oral administration 300 (G) 200 (C) mg/kg single, CDK inhibitor oral 400 mg/kg single, 4 h before): 20%
- Relative remission rate of other administration mode ([5]; Example 443, Gemcitabine and Carboplatin oral administration 300 (G) 200 (C) mg/kg single, CDK inhibitor local administration 400 mg/kg single, 8 h before): 10%
- Relative remission rate of oral administration ([5]; Example 443, Gemcitabine and Carboplatin oral administration 300 (G) 200 (C) mg/kg single, CDK inhibitor oral 400 mg/kg single, 8 h before): 20%
- improvement of constipation by oral administration, intraperitoneal injection, intramuscular injection, local administration [5]: can significantly improve constipation

Compound: Roniciclib
- Relative remission rate ([4]; Example 322, Docetaxel (DTX) intramuscular injection 20 mg/kg single, CDK inhibitor oral 1 mg/kg single, 5 h before): 10%
- Relative remission rate (%) ([2]; Example 73, Oxaliplatin intraperitoneal injection 20 mg/kg single, CDK inhibitor oral 10 mg/kg single 6 h before, cycle 8 days): 30%
- Relative remission rate (%) ([2]; Example 117, Irinotecan (CPT-11) intraperitoneal injection 240 mg/kg single, CDK inhibitor oral 10 mg/kg single 6 h before, cycle 7 days): 20%
- Relative remission rate of other administration mode ([5]; Example 420, Etoposide (Etop1) intravenous injection 100 mg/kg single, CDK inhibitor intraperitoneal injection 100 mg/kg single, 1 h before): 10%
- Relative remission rate of oral administration ([5]; Example 420, Etoposide (Etop1) intravenous injection 100 mg/kg single, CDK inhibitor oral 1 mg/kg single, 1 h before): 20%
- improvement of constipation by oral administration, intraperitoneal injection, intramuscular injection, local administration [5]: can significantly improve constipation
